The text below walks through data of paper PMC7767381, “Exploring the Anti-Cancer Mechanism of Novel 3,4′-Substituted Diaryl Guanidinium Derivatives” (Pharmaceuticals, 2020).

For data set [1], the system named is HL-60 cells. As to the kind of experiment: alamarBlue cell viability assay, HL-60. The data set is classed as cell-based. Particulars: Homo sapiens, HL-60, 72 h, alamarBlue, 72 h; read-out: HL-60 IC50 ± SEM. The source says:
Cell viability and proliferation assays were used to evaluate the in vitro cytotoxicity of all synthesised compounds in a variety of different cancer cell lines using the alamarBlue® viability assay and the results are presented in Table 1 and Table 2. The sensitivity of cancer cells to drugs can often be compromised by PIK3CA, Ras and BRAF mutations. To determine whether such mutations are critical to the efficacy of our new compounds we tested them in a range of cancerous cell lines expressing different mutations. Firstly, we used the HL-60 (human promyelocytic leukaemia, NRas mutated) cell line for general cytotoxicity screening of all compounds. […] Lastly, toxicity against MCF-10A, which is a non-tumorigenic epithelial cell line, was also assessed for one of the most promising compounds (4). The graphs representing the viability results with the HL-60, MCF-7, HeLa, HCT-116, and HKH-2 cancer cell lines for compound 1 and derivatives 2, 3, and 4 are shown in Figures S7–S10 (ESI).
(§1) Cells were counted and seeded in 96-well plates at a density of 2 × 10^5 cells/mL for HL-60, 2.5 × 10^4 cells/mL for MCF-7, MCF10A and HeLa, 1 × 10^5 cells/mL for HCT116 and HKH-2, all of them in their respective media. The 96-well plates were then treated with a 1:100 dilution of stock concentrations of drugs or EtOH (1% v/v)/DMSO (0.1% v/v) as vehicle control in triplicate. Three blank wells containing 200 µL RPMI with no cells were also set-up as blanks. After a 72 h incubation, 20 µL of alamarBlue was added to each well. The plates were incubated in darkness at 37 °C for 4–5 h using a Molecular Devices microplate reader, the fluorescence (F) was then read at an excitation wavelength of 544 nm and an emission wavelength of 590 nm. Cell viability was then determined by subtracting the mean blank fluorescence (Fb) from the treated sample fluorescence (Fs) and expressing this as a percentage of the fluorescence of the blanked vehicle control (Fc). […] The results were then plotted as a nonlinear regression, sigmoidal dose-response curves on Prism, from which the IC50 value for each drug was determined. […]
Pharmacy, TCD. It was maintained in Roswell Park Memorial Institute (RPMI) 1640 medium with stable glutamate (GlutaMax I) supplemented with 10% (v/v) fetal bovine serum (FBS), 1% (v/v) penicillin/ streptomycin (pen-strep) and 2 mM L-glutamine. […]
4.4. AlamarBlue ® Cell Viability Assay
Cells were counted and seeded in 96 well plates at a density of 2 × 10^5 cells/mL for HL-60, 2.5× 10^4 cells/mL for MCF-7, MCF10A and HeLa, 1 × 10^5 cells/mL for HCT116 and HKH-2, all of them in their respective media. The 96 well plates were then treated with a 1:100 dilution of stock concentrations of drugs or EtOH (1% v/v)/DMSO (0.1% v/v) as vehicle control in triplicate.
Three blank wells containing 200 µL media with no cells were also set-up as blanks. After a 72 h incubation, 20 µL of AlamarBlue was added to each well. The plates were incubated in darkness at 37 °C for 4-5 h. Using a Molecular Devices microplate reader, the fluorescence (F) was then read at an excitation wavelength of 544 nm and an emission wavelength of 590 nm.
Cell viability was then determined by subtracting the mean blank fluorescence (Fb) from the treated sample fluorescence (Fs) and expressing this as a percentage of the fluorescence of the blanked vehicle control (Fc). […] The results were […]
then plotted as a nonlinear regression, sigmoidal dose-response curves on Prism, from which the IC50 value for each drug was determined.
Fs − Fb x 100 = % Cell Viability
60 cell line in a dose-dependent manner.
(1 picture or pasted object on this page, not shown here)

Data set [2] relates to MCF10A cells. As to the kind of experiment: alamarBlue toxicity in non-tumorigenic MCF10A cells. Type of data set: cell-based, human.
Source text: Considering the promising cytotoxicity results obtained with the cancer cell lines, we also evaluated the potential toxicity of the most efficient derivative (compound 4) in the non-cancerous cell line MCF10A (human mammary epithelial cell line).
as §1, with “After a 72 h incubation, 20 µL of alamarBlue was added to each well.” left out
Figure S11. Scatter correlation found between the calculated logP and the HL -60 cytotoxic […]

On to `Cl.Cl.N=C(N)Nc1ccc(Oc2cccc(NC(=N)Nc3ccc(Cl)c(C(F)(F)F)c3)c2)cn1` [Compound 2, 1-(4-Chloro-3-(trifluoromethyl)phenyl)-3-(3-((6-guanidinopyridin-3-yl)oxy)phenyl) guanidine dihydrochloride], for which, in data set [1], the IC50 (commonly the concentration needed to halve the response being measured) stood at 2.36 ± 0.14 µM.
For `Cl.N=C(N)Nc1ccc(Oc2cccc(Nc3ccc(Cl)c(C(F)(F)F)c3)c2)cn1` [Compound 4, 1-(5-(3-((4-Chloro-3-(trifluoromethyl)phenyl)amino)phenoxy)pyridin-2-yl)guanidine hydrochloride], in data set [1], the concentration for half-maximal inhibition (IC50) was found to be 3.48 ± 0.28 µM. Moreover, in data set [2] (100 μM), the “toxicity towards MCF10A” value is “shows toxicity”. The “effect on MCF10A cell viability” value in data set [2] (10 and 1 μM) was “does not appear to affect in any way cell viability”.
